Test results: US20110263478A1, “SUR1 INHIBITORS FOR THERAPY” (priority 2008, published 2011)

Experiments:
[1] = tested on: rats with spinal cord injury (SCI); assay: Rat cervical SCI model: hemorrhage / extravasated blood in cord; type: in vivo; conditions: 1 d post-SCI
Protocol: Constant infusion of a low-dose of drug was used to achieve sustained occupancy of only high-affinity receptors.
(§1) SCI injury model. This study was performed in accordance with the guidelines of the Institutional Animal Care and Use Committee. Adult female Long-Evans rats (275-350 gm) were anesthetized (Ketamine, 60 mg/kg plus Xylazine, 7.5 mg/kg, i.p.). The dura at C4-5 was exposed via a left hemilaminectomy. A hemi-cervical spinal cord contusion was created using a blunt force impactor (1.3-mm impactor head driven by a 10 gm weight dropped vertically 25 mm) (Soblo sky et al., 2001; Gensel et al., 2006). After SCI, animals were given 10 ml of glucose-free normal saline s.q. Rectal temperature was maintained at ˜37° C. using a servo-controlled warming blanket. Blood gases and serum glucose 10-15 min post-SCI were: pO2, 95±6 mm Hg; pCO2, 46±3 mm Hg; pH, 7.33±0.01; glucose 258±17 mg/dl in controls and pO2, 96±7 mm Hg; pCO2, 45±2 mm Hg; pH, 7.37±0.01; glucose 242±14 mg/dl in glibenclamide-treated animals.
(§2) Drug delivery. […] During the course of the project, slightly different formulations of drug were used, with the best results obtained using stock solutions made by placing 50 mg (or 25 mg) of drug into 10 ml DMSO, and infusion solutions made by placing 400 μl (or 800 μl) stock into 4.6 ml (or 4.2 ml) unbuffered saline (0.9% NaCl) and adjusting the pH to ˜8.5 using 0.1 N NaOH.
(§3) For in vivo gene suppression of SUR1, we used oligodeoxynucleotides that were phosphorothioated at 4 distal bonds to protect against endogenous nucleases (35). Within a few min of SCI, mini-osmotic pumps (Alzet 2002, 0.5 μl/h; Durect Corporation) with jugular vein catheters were implanted that delivered either scrambled sequence ODN (Scr-ODN) (5′-[…]-3′; SEQ ID NO:1) or antisense ODN (AS-ODN) (5′-[…]-3′; SEQ ID NO:2) (Yokoshiki et al., 1999) in PBS at a rate of 1 mg/rat/24 h.
Tissue blood. Rats were sacrificed at various times after SCI (n=5-11 rats/group), were perfused with heparinized saline to remove intravascular blood, and 5-mm segments of cord encompassing the lesion were homogenized and processed as described (Choudhri et al., 1997).

[2] = tested on: rats with spinal cord injury (SCI); assay: Rat cervical SCI model: histology, capillaries and lesion size; type: in vivo; conditions: 7 d post-SCI
Protocol: as §1, §2
Lesion size. At 7 d post-SCI, cords were paraffin sectioned and stained with H&E. Lesion volumes were calculated from lesion areas measured on serial sections every 250 μm.
Immunohistochemistry. Cryosections were immunolabeled (Chen et al., 2003; Simard et al., 2006) using primary antibodies directed against SUR1 (Santa Cruz, C-16; 1:200; 1 h at RT, 48 h at 4° C.), SUR2 (Santa Cruz, H-80; 1:200; 1 h at RT, 48 h at 4° C.), GFAP (Sigma, C-9205; 1:500), and vimentin (Sigma, monoclonal CY3 conjugated; 1:100). Quantitative immunofluorescence was performed as described (Gerzanich et al., 2003).

[3] = tested on: rats with spinal cord injury (SCI); assay: Rat cervical SCI model: neurobehavioral assessment (inclined plane, paw placement, rearing); type: in vivo
Protocol: as §1, with “blanket.” for “blanket. Blood gases and serum glucose 10-15 min post-SCI were: pO2, 95±6 mm Hg; pCO2, 46±3 mm Hg; pH, 7.33±0.01; glucose 258±17 mg/dl in controls and pO2, 96±7 mm Hg; pCO2, 45±2 mm Hg; pH, 7.37±0.01; glucose 242±14 mg/dl in glibenclamide-treated animals.”
For in vivo gene suppression of SUR1, we used oligodeoxynucleotides that were phosphorothioated at 4 distal bonds to protect against endogenous nucleases (35).
Neurobehavioral assessment. All measurements were performed by blinded evaluators. Performance on the inclined plane was evaluated as described (Rivlin and Tator, 1977). To assess paw placement and vertical exploration (rearing) (Nikulina et al., 2004) animals were videotaped while in a translucent cylinder (19×20 cm). Rearing was quantified as the number of seconds spent with both front paws elevated above shoulder-height during a 3-min period of observation.

[4] = tested on: SUR1; assay: Gliotic capsule model with ODN infusion: SUR1 Western blot and astrocyte patch clamp; type: in vivo, rat
Protocol: To validate the antisense strategy, it was first implemented in the model that was originally used for the discovery of the NCCa-ATP channel, wherein a gelatin sponge is implanted into the parietal lobe to stimulate formation of a gliotic capsule (Chen and Simard, 2001). Here, animals were also fitted with mini-osmotic pumps that delivered oligodeoxynucleotides (ODN), either antisense (AS) or scrambled (Scr), continuously for 7 d into the injury site.
SUR1 knock-down in astrocytes was performed in triplicates by implanting rats with gelatin sponges in the parietal lobe to induce formation of a gliotic capsule containing reactive astrocytes that express the SUR1-regulated NCCa-ATP channel (Chen and Simard, 2001; Chen et al., 2003). At the same time, they were implanted with mini-osmotic pumps (Alzet, model 2002; 14-day pump) placed in the dorsal thoracolumbar region that contained ODN (711 μg/ml delivered @ 0.5 μl/h, yielding 1500 picomoles/day), with the delivery catheter placed directly into the site of the gelatin sponge implant in the brain. Animals were infused with Src-ODN or AS-ODN, as above but not phosphorothioated. After 10-14 days, the gelatin sponge plus encapsulating gliotic tissues were harvested and processed either for Western immunoblots or to obtain fresh reactive astrocytes for patch clamp electrophysiology. […]

[5] = tested on: SUR1; assay: SCI with i.v. ODN: SUR1 immunolabeling of cord; type: in vivo, rat
Source text: For studies with SCI, AS-ODN and Scr-ODN were used that were phosphorothioated at 4 distal bonds to protect against endogenous nucleases (Galderisi et al., 1999), with ODN's administered i.v. starting immediately after injury. […] With Scr-ODN, the necrotic void beneath the impact site was surrounded by an SUR1-positive shell of tissue, similar to observations in untreated animals (FIG. 1a). With AS-ODN, however, only the small volume of tissue immediately beneath the impact site was labeled for SUR1, and no necrotic void was evident (FIG. 5c).
as §3
Immunohistochemistry. […] Quantitative immunofluorescence was performed as described (Gerzanich et al., 2003).

[6] = molecular target: T1, SUR-regulated channels (KATP / NCCa-ATP) in human aortic endothelial cells (Homo sapiens, UniProt Q09428); assay: Nystatin-perforated patch clamp, diazoxide activation in endothelial cells cultured under normoxic or hypoxic conditions; type: cell-based; conditions: most endothelial cells cultured under hypoxic conditions
T1 construct: host or cells: human aortic endothelial cells, cultured under normoxic or hypoxic conditions
Protocol: (§4) Patch clamp of endothelial cells was performed using a nystatin-perforated patch technique, to maintain the metabolic integrity of the cells. The identity of the activated channel can be assessed by measurement of the “reversal potential”, the potential at which an ion channel current reverses from inward to outward. With physiologically relevant concentrations of ions intracellularly and extracellularly (high potassium inside, high sodium outside), the reversal potential can unambiguously distinguish between a K^+ channel current such as KATP, which reverses negative to −50 mV and a non-selective cation channel current such as NCCa-ATP, which reverses near 0 mV.
(§5) Cell culture. Endothelial cell cultures from human brain microvessels, human aorta (ScienCell Research Laboratories), and murine brain microvessels (bEnd.3; ATCC), were grown at low density using media and supplements recommended by suppliers.

[7] = tested on: SUR-regulated channels (KATP / NCCa-ATP) in human aortic endothelial cells; assay: as above; type: cell-based; conditions: endothelial cells cultured under normoxic conditions
Protocol: as §4, §5

[8] = molecular target: SUR1-regulated NCCa-ATP channels (Rattus norvegicus, UniProt Q09429); conditions: read-out: EC50, block of SUR1-regulated NCCa-ATP channel; cited from earlier work
[9] = molecular target: native and recombinant β-cell KATP channels (Homo sapiens, UniProt Q09428); conditions: read-out: IC50, block of β-cell KATP channels; cited from earlier work
[10] = tested on: Abcc8 mRNA and SUR1 protein in bEnd.3 cells; assay: TNFα exposure of bEnd.3 cells: RT-PCR and immunoblot for Abcc8 / SUR1; type: cell-based, murine; conditions: 6-hr exposure, 20 ng/ml
Protocol: Immunoblot. Lysates of inferomedial cortex, or of cultured bEnd.3 cells (ATCC, Monassas, Va.) that had been exposed to TNFα (20 ng/ml) for 6 hr, were prepared by homogenizing in RIPA lysis buffer. SUR1 was immunoisolated using a custom antibody raised against amino acids 598-965 (Protein Id, NP_037171) in rabbits by a commercial service (Covance, Denver, Pa.). This custom antibody was used to immunoisolate SUR1 using standard techniques, following which immunoisolated SUR1 was run on electrophoretic gels (NuPAGE® 4-12% Bis-Tris gels; Novex, Invitrogen, Carlsbad, Calif.). SUR1 was detected using the same custom antibody. Membranes were stripped and re-blotted for β-actin (1:5000; Sigma), which was used as a loading control. Detection was carried out using the ECL system (Amersham BioTBIences, Inc.) with routine imaging (Fuji LAS-3000) and quantification (Scion Image, Scion Corp, Frederick, Md.).
RT-PCR. bEnd.3 cells were exposed to TNFα (20 ng/ml) for 6 hr. RNA was extracted with TRIzol reagent (Invitrogen). RT-PCR was performed using Reverse Transcription System (Promega). The target transcript was reverse transcribed at RT for 10 min, then incubated at 42° C. for 15 min. The cDNA was amplified using 35 cycles under the following conditions: 94° C. for 30 sec; 57° C. for 45 sec; 72° C. for 45 sec. […] RT-PCR products (449 bp) were analyzed using 2.0% agarose/EtBr gel electrophoresis.

[11] = tested on: rAbcc8 promoter / NFκB consensus sequences; assay: Luciferase reporter assay in HeLa cells; type: cell-based; conditions: 20 ng/ml
Protocol: Luciferase reporter assay. TNFα-stimulated activity of the promoter region of Abcc8 was determined using luciferase reporter plasmids as previously described. HeLa cells were transfected with luciferase reporter plasmids containing the rAbcc8 promoter (−3853 to +125) or four tandem NFκB consensus sequences (Clonetech, Mountain View, Calif.) using Lipofectamine-2000 (Invitrogen). Co-transfection of pRL-CMV, Renilla luciferase expression plasmid served as a control for transfection efficiency. The luciferase activity of cell extracts was determined using the Dual Luciferase system from Promega.

[12] = 1 d post-SCI, ODN i.v., vs Scr-ODN

Sequence of SUR1-regulated NCCa-ATP channels (Q09429 whole entry): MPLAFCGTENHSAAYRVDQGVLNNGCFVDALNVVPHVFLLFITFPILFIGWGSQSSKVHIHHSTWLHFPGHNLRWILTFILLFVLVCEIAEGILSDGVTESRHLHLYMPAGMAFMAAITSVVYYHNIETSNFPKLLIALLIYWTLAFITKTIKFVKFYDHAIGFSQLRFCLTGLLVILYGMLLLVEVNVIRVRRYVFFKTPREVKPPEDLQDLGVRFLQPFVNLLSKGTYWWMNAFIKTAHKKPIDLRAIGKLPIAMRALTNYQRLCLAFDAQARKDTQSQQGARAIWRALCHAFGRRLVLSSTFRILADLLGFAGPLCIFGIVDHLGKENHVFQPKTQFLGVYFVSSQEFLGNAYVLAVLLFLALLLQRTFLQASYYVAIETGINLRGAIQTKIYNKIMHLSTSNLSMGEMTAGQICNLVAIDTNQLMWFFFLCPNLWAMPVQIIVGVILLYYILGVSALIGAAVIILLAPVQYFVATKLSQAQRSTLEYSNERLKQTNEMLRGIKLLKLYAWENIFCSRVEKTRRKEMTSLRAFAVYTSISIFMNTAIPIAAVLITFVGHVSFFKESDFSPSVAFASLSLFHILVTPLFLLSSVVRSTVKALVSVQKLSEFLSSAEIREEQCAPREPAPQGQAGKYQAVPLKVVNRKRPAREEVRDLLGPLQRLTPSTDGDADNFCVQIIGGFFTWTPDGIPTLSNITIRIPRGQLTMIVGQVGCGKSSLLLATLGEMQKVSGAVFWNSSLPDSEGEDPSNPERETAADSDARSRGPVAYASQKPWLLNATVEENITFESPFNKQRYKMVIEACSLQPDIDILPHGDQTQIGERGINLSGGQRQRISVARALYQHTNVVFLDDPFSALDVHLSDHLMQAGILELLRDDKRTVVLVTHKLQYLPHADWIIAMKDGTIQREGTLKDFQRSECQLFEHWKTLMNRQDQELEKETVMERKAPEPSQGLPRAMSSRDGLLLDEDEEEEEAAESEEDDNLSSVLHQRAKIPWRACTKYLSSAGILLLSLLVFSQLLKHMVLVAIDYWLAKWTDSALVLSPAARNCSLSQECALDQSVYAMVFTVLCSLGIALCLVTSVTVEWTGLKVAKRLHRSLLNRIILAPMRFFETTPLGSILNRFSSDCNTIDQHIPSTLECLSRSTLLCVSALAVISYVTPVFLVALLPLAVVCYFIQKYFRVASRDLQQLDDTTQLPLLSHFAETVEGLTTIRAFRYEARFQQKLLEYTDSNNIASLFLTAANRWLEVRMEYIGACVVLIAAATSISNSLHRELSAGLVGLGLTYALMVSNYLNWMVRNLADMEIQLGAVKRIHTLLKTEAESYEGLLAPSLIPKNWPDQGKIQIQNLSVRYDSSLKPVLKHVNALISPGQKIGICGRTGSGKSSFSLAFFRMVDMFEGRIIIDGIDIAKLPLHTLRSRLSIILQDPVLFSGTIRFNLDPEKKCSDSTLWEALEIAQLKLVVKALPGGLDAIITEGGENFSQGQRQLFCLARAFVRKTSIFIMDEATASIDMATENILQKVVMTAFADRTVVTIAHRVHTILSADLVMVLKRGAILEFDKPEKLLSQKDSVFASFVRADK
Sequence of SUR1-regulated NCCa-ATP channels (Q9ESQ5 whole entry partner): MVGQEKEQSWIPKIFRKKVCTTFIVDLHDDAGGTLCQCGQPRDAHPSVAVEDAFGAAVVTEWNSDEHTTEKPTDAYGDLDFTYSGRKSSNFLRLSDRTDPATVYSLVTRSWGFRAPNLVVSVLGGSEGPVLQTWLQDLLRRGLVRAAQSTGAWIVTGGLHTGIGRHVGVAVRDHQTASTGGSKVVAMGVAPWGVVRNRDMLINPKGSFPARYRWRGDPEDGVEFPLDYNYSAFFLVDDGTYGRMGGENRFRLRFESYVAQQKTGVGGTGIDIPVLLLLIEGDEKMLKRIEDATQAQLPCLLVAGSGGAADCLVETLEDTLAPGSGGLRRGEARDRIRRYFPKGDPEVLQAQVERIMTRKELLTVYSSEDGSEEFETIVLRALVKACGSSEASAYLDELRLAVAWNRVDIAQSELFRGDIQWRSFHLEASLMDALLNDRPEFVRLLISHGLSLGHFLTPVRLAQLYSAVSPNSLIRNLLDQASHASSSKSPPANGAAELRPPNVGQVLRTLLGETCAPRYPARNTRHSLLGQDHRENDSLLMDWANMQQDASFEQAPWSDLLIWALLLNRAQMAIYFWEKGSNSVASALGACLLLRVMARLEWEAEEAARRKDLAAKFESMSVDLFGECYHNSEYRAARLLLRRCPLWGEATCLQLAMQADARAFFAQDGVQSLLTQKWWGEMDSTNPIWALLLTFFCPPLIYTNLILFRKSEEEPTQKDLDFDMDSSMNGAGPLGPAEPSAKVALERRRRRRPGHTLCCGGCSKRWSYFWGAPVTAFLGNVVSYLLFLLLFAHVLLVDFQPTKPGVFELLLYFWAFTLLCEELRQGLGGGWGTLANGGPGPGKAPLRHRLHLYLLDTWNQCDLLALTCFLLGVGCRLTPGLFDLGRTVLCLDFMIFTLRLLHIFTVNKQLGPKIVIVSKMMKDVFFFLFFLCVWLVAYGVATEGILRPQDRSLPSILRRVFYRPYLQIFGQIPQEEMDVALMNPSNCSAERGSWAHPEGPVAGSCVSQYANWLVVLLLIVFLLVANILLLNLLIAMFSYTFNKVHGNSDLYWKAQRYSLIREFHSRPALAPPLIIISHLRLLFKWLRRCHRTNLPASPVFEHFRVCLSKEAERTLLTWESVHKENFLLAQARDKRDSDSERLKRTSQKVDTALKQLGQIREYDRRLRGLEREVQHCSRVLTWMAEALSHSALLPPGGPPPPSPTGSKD
T1 sequence (Q09428 whole entry): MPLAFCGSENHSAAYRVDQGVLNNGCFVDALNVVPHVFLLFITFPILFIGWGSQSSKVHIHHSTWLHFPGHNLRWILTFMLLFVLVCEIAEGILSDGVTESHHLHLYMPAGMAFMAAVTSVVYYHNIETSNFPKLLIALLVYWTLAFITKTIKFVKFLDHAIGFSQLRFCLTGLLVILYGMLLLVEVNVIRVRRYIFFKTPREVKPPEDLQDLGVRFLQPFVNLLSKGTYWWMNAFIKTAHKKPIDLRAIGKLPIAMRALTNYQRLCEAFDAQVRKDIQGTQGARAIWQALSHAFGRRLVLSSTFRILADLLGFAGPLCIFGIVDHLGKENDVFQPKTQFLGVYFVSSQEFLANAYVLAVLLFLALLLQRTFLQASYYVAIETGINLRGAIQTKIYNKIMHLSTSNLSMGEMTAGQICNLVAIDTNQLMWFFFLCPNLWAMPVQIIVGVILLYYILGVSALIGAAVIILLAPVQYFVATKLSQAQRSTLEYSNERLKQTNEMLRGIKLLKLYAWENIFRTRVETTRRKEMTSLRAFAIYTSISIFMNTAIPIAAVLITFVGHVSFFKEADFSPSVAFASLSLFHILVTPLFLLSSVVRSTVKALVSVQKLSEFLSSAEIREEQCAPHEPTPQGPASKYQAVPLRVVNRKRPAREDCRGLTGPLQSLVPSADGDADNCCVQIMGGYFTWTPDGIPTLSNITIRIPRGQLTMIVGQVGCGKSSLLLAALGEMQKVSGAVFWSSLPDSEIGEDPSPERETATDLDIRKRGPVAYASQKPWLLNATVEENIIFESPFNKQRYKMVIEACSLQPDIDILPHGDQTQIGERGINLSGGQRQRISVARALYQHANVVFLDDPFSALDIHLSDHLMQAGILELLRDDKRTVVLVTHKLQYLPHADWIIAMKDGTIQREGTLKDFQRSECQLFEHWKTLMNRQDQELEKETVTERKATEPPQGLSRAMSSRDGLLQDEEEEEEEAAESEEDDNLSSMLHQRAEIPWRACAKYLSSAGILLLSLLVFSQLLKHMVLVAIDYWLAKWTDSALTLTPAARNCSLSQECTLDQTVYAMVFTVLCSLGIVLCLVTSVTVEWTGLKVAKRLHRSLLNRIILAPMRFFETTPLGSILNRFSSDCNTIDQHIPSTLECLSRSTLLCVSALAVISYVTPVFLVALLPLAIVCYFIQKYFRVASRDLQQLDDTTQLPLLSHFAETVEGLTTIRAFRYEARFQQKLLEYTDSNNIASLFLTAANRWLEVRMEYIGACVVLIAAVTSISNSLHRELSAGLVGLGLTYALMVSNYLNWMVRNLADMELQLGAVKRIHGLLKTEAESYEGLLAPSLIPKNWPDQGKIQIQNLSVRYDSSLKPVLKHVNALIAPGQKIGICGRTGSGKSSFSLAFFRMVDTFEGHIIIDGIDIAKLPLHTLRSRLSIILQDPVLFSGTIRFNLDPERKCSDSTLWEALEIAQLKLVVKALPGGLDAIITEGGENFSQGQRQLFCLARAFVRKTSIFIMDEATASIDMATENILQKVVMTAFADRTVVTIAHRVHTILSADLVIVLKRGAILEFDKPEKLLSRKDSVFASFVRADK
Sequence of native and recombinant β-cell KATP channels (Q09428 whole entry): as above
Sequence of native and recombinant β-cell KATP channels (Q14654 whole entry partner): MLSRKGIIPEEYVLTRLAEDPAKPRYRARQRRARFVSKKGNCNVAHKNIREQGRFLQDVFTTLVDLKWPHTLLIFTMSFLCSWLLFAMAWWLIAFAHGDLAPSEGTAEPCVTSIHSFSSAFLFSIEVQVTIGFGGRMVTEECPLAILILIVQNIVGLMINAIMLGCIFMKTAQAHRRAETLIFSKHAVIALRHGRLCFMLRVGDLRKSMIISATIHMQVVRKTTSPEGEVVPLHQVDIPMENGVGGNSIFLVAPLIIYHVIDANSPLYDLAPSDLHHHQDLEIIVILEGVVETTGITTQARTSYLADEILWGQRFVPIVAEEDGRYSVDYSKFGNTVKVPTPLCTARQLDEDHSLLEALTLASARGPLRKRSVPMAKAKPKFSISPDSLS

**Q.** With “5′-GGCCGAGTGGTTCTCGGT-3′ (DNA, backbone not given here; phosphorothioate at four distal bonds) [AS-ODN]” as the compound, how does the “blood in cord homogenates” value ([1]; ODN i.v., vs Scr-ODN) read?
**A.** reduced blood in cord homogenates

**Q.** And the “lesion volume, reduction compared to controls” value [2]?
**A.** 3 fold

**Q.** And the “performance on inclined plane” value [3, 12]?
**A.** significantly better performance

**Q.** What about the vertical exploration [3, 12] of the same compound?
**A.** significantly better performance

**Q.** And the “SUR1 protein in gliotic capsule (Western blot)” value ([4]; ODN infused into injury site, vs Scr-ODN)?
**A.** significant reduction in SUR1 protein

**Q.** And the “depolarization of gliotic capsule astrocytes on ATP depletion by Na azide” value ([4]; vs Scr-ODN (rapidly depolarized))?
**A.** depolarized only slightly or not at all

**Q.** What about the “immunolabeling for SUR1 in cord” value ([5]; 6 h post-SCI, ODN i.v. 1 mg/rat/24 h, vs controls) of the same compound?
**A.** significantly less immunolabeling for SUR1

**Q.** And the “normal expression of SUR1 in dorsal horn cells” value ([5]; post-SCI, ODN i.v.)?
**A.** did not affect

**Q.** Which “whole-cell current response to diazoxide” value [6] does the source give for `CC1=NS(=O)(=O)c2cc(Cl)ccc2N1` [diazoxide] here?
**A.** activated an ohmic current that reversed near 0 mV

**Q.** And the “whole-cell current response to diazoxide” value [7]?
**A.** either had no effect or, in half of the cells, activated an outwardly rectifying current that reversed at potentials more negative than −50 mV

**Q.** Which EC50 [8] does the source give for `Nc1ncnc2c1ncn2[C@@H]1O[C@H](COP(=O)(O)OP(=O)(O)OP(=O)(O)O)[C@@H](O)[C@H]1O` [ATP] here?
**A.** 790 nM

**Q.** What does the source list for `CCOc1cc(CC(=O)N[C@@H](CC(C)C)c2ccccc2N2CCCCC2)ccc1C(=O)O` [repaglinide]?
**A.** blood in cord homogenates ([1]; vehicle 1.8±0.2, P<0.01): 1.2 ± 0.1 µL; lesion volume, reduction compared to controls [2]: 3 fold; vertical exploration (rearing), time during 3-min observation ([3]; 1 d post-SCI, 200 ng/h s.q.): 27 ± 6 s; inclined plane, head down ([3]; post-SCI, vehicle 29±4, P=0.03): 47±3 degrees; inclined plane, head up ([3]; post-SCI, vehicle 40±4, P=0.01): 62±2 degrees; IC50 [9]: 0.9 to 7 nM

**Q.** With TNFα as the compound, how does the “Abcc8 mRNA and SUR1 protein” value [10] read?
**A.** both increased

**Q.** What about the “activity of rAbcc8 promoter, increase” value [11] of the same compound?
**A.** ~2 fold

**Q.** What about the “luciferase activity driven by NFκB binding sites, stimulation” value [11] of the same compound?
**A.** ~2.3 fold
